Assay results taken from PubChem BioAssay AID812 (SRMLSC, 2007).
The source made the active and inactive calls. The rule behind the calls is not given here.

The compounds below were run on Saccharomyces cerevisiae lifespan extension, no nicotinamide (assay: yeast lifespan extension without nicotinamide, confirmation, yeast lifespan extension project, S. cerevisiae (AID 812);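 note: growth read as optical density after 42 hours of incubation at 30C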).
In the case of `Cc1ccc(C(=O)C2C(=O)c3ccccc3C2=O)cc1`, the EC50 is reported as > 40 µM (inactive).
`Cc1c(NC(=O)C(=O)/C=C(/O)c2ccccc2)c(=O)n(-c2ccccc2)n1C` was tested, and the EC50 was > 40 µM (inactive).
In the case of `COc1ccc(OC)c(C2C(C(C)=O)=C(O)C(=O)N2Cc2cccnc2)c1` (stereo unspecified), the EC50 is reported as > 40 µM (inactive).
For `O=C(Nc1nc2ccccc2n1CCN1CCOCC1)c1cn(-c2ccccc2)nc1-c1ccccc1`, the EC50 was > 40 µM (inactive).
With `CNC(=O)/C(C#N)=C/c1c(F)cccc1Cl` the EC50 was > 40 µM (inactive).
In the case of `CN(C)CC(C(=O)c1ccccc1)c1ccccc1` (stereo unspecified), the EC50 is reported as > 40 µM (inactive).
For `O=C(NNC1=Nc2cccc3cccc1c23)c1ccccc1Br`, the EC50 was > 40 µM (inactive).
`COc1ccc(NC(=O)/C(Cl)=C(/Cl)S(=O)Cc2ccc(C)cc2)cn1` (stereo unspecified) was tested, and the EC50 was > 40 µM (inactive).
In the case of `c1ccc(-c2cc(N3CCOCC3)nc3ccccc23)cc1`, the EC50 is reported as > 40 µM (inactive).
For `CC(=Nc1ccc2c(c1)nc(CO)n2C)C1=C(O)CC(C)(C)CC1=O`, the EC50 was > 40 µM (inactive).
In the case of `Cn1c(SCC(=O)N2CCCc3ccccc32)nnc1-c1c[nH]c2ccccc12`, the EC50 is reported as > 40 µM (inactive).
With `CCCCOC(=O)CSc1nc2c(c(=O)[nH]c(=O)n2C)n1C/C=C(\C)Cl` the EC50 was > 40 µM (inactive).
`COc1cccc(/C=C/C(=O)c2c(O)cc(C)oc2=O)c1O` was tested, and the EC50 was > 40 µM (inactive).
`O=c1cc(-c2ccccc2Cl)oc2ccc([N+](=O)[O-])c(O)c12` was tested, and the EC50 was > 40 µM (inactive).
In the case of `O=C(O)c1cccc2c1C(=O)N(C1CCCCC1)C2`, the EC50 is reported as > 40 µM (inactive).
`COc1ccc(-c2cc(C(F)(F)F)nc(S(C)(=O)=O)n2)cc1` was tested, and the EC50 was > 40 µM (inactive).
With `O=C(CSc1nc2ccccc2o1)c1cc2ccccc2oc1=O` the EC50 was > 40 µM (inactive).
With `COC(=O)C1=C(C(=O)OC)C(c2ccccc2O)c2sc(=O)[nH]c2S1` (stereo unspecified) the EC50 was > 40 µM (inactive).
For `CCCCCCCC(=O)N/N=C(/C)c1c(O)cc(C)oc1=O`, the EC50 was > 40 µM (inactive).
In the case of `O=C(NCc1ccco1)c1c(O)c2cccc3c2n(c1=O)CCC3`, the EC50 is reported as > 40 µM (inactive).
In the case of `CCOC(=O)c1nnn(-c2nonc2N)c1CN1CCc2ccccc2C1`, the EC50 is reported as > 40 µM (inactive).
In the case of `CN1OC(c2ccccc2)=C(CO)C1c1ccccc1` (stereo unspecified), the EC50 is reported as > 40 µM (inactive).
`CCOC(=O)CC1=NN(c2ccccc2)C(=O)/C1=C\c1ccc(OC)cc1OC` was tested, and the EC50 was > 40 µM (inactive).
With `O=C(NCc1ccco1)c1cc(C(=O)C2CCCCC2)c[nH]1` the EC50 was > 40 µM (inactive).
With `Cc1ccc2nc(N3C(=O)C(O)=C(C(=O)c4ccco4)C3c3cccs3)sc2c1` (stereo unspecified) the EC50 was > 40 µM (inactive).
For `CCC(=O)N1CCN(CCN=CC2=C(O)CC(c3cccs3)CC2=O)CC1` (stereo unspecified), the EC50 was > 40 µM (inactive).
In the case of `CCCC(=Nc1ccccc1)C1=C(O)C(C(=O)OC)C(C)(C)CC1=O` (stereo unspecified), the EC50 is reported as > 40 µM (inactive).
`Cc1ccnc(-n2c(C)cc(/C=C3\C(=O)NC(=S)N(C)C3=O)c2C)c1` was tested, and the EC50 was > 40 µM (inactive).
For `CSC1=NSC2=NC(=O)/C(=C\c3cccs3)C(=N)N12`, the EC50 was > 40 µM (inactive).
`COn1c(SC2CCCCC2)nc2ccccc2c1=O` was tested, and the EC50 was > 40 µM (inactive).
In the case of `CC(c1ccco1)N(C(=O)c1ccccc1NS(=O)(=O)c1cc([N+](=O)[O-])ccc1Cl)c1ccccn1` (stereo unspecified), the EC50 is reported as > 40 µM (inactive).
For `O=c1cc(O)c2c(=O)n(-c3ccccc3)c3c(c2o1)CCCCCC3`, the EC50 was > 40 µM (inactive).
`O=c1c2ccccc2nc(-c2cccc(Cl)c2)n1O` was tested, and the EC50 was > 40 µM (inactive).
In the case of `Oc1ccc(Br)cc1C=Nc1ccc2[nH]ncc2c1`, the EC50 is reported as > 40 µM (inactive).
In the case of `CCn1ncc(/C=N/NC(=O)c2ccc3c(c2)OCO3)c1C`, the EC50 is reported as > 40 µM (inactive).
For `CN(C)c1ccc(S(=O)(=O)c2ccc(Cl)cc2)cc1`, the EC50 was > 40 µM (inactive).
In the case of `CC(=O)[C@H]1[C@H](c2cccc(Cl)c2)C(C#N)(C#N)[C@@H]2c3ccccc3C=CN21`, the EC50 is reported as > 40 µM (inactive).
For `CC(C)C(C(=O)O)N1C(=O)/C(=C/c2cccn2C)SC1=S` (stereo unspecified), the EC50 was > 40 µM (inactive).
`O=C(c1c[nH]c(C(=O)C(Cl)(Cl)Cl)c1)c1ccccc1Cl` showed an EC50 of 7.18 µM.
In the case of `Oc1ccc2ccccc2c1/C=N/c1nccs1`, the EC50 is reported as > 40 µM (inactive).
`COc1ccc(CN2C(=O)/C(=C/c3ccncc3)SC2=S)cc1` was tested, and the EC50 was > 40 µM (inactive).
In the case of `Cc1cc(C=C2C(=O)N(C)C(=S)N(C)C2=O)c(C)n1-c1cccnc1`, the EC50 is reported as > 40 µM (inactive).
`CC(=O)Oc1oc(-c2ccccc2)nc1C=Nc1ccccc1` was tested, and the EC50 was > 40 µM (inactive).
For `COc1ccc(/C=C(\C#N)C(=O)N2CCOCC2)cc1Br`, the EC50 was > 40 µM (inactive).
In the case of `O=C1C(Cl)=C(Nc2ccccc2O)C(=O)N1CCc1ccccc1`, the EC50 is reported as > 40 µM (inactive).
For `CCn1c(=O)c2ccccc2n2c(SCC(=O)N3CCCc4ccccc43)nnc12`, the EC50 was > 40 µM (inactive).
`Nn1c(-c2ccccn2)nnc1-c1ccccn1` was tested, and the EC50 was > 40 µM (inactive).
In the case of `CCCCCCC1C(C#N)=C(N)OC2=C1C(=O)CC(C)(C)C2` (stereo unspecified), the EC50 is reported as > 40 µM (inactive).
In the case of `Cc1ccc2[nH]c3c(c2c1)CC/C(=C/c1ccccc1)C3=O`, the EC50 is reported as > 40 µM (inactive).
In the case of `CCC(=O)Nc1ccccc1Sc1ncnc2scc(-c3ccccc3)c12`, the EC50 is reported as > 40 µM (inactive).
`O=C(N/N=C/c1ccc(F)cc1)c1c(O)c2ccccc2[nH]c1=O` was tested, and the EC50 was > 40 µM (inactive).
For `Cc1ccc(NC(=O)C2C(=O)N(C)c3ccccc32)cc1` (stereo unspecified), the EC50 was > 40 µM (inactive).
In the case of `CCCN1C(=O)/C(=C/c2ccncc2)SC1=S`, the EC50 is reported as > 40 µM (inactive).
Work on `CCc1nc(SCC(=O)c2ccc3c(c2)OCCO3)c2ccccc2n1` yielded an EC50 of 19.1 µM.
In the case of `CCCC(=O)C1C(=O)CC(CC(C)SCC)CC1=O` (stereo unspecified), the EC50 is reported as > 40 µM (inactive).
With `O=S1(=O)C=C(Sc2nc3ccccc3s2)c2ccccc21` the EC50 was > 40 µM (inactive).
With `CC(=O)Nc1nc(C)c(Oc2ccccc2)c(=O)[nH]1` the EC50 was > 40 µM (inactive).
`CCC(=NCCc1c(C)[nH]c2ccc(C)cc12)C1=C(O)CC(c2ccccc2)CC1=O` (stereo unspecified) was tested, and the EC50 was > 40 µM (inactive).
`CC1CCCCN1C(=S)Nc1ccc2nc3n(c(=O)c2c1)CCCCC3` (stereo unspecified) was tested, and the EC50 was > 40 µM (inactive).
`Cc1cccc(NC(=O)c2c(O)c3cccc4c3n(c2=O)CCC4)n1` was tested, and the EC50 was > 40 µM (inactive).
In the case of `CCCCNC(=O)/C(C#N)=C/c1cccnc1`, the EC50 is reported as > 40 µM (inactive).
With `Cc1[nH]nc2nc3c(c(OC(=O)c4ccccc4)c12)c(=O)n(C)c(=O)n3C` the EC50 was > 40 µM (inactive).
In the case of `O=C1C=CC2C(c3ccc4c(c3)OCO4)CC1N2Cc1ccccc1` (stereo unspecified), the EC50 is reported as > 40 µM (inactive).
With `O=C(NCCc1ccccn1)C(F)(F)C(F)(F)C(F)(F)C(F)(F)C(F)(F)C(F)(F)C(F)(F)C(F)F` the EC50 was > 40 µM (inactive).
With `Cc1cc(C)c(S(=O)(=O)c2ccccc2)c(OC(=O)c2ccc(Cl)cc2Cl)n1` the EC50 was > 40 µM (inactive).
For `Cc1cc(C(=O)CN2C(=O)NC(C)(CC(C)C)C2=O)c(C)n1-c1ccc2c(c1)OCO2` (stereo unspecified), the EC50 was > 40 µM (inactive).
With `CS(=O)(=O)c1nc(-c2ccco2)cc(C(F)(F)F)n1` the EC50 was > 40 µM (inactive).
In the case of `C/C(=N\NC(=O)c1ccccc1O)C1C(=O)c2ccccc2C1=O`, the EC50 is reported as > 40 µM (inactive).
For `N=c1c2c(-c3ccccc3)c(-c3ccccc3)n(Cc3ccco3)c2ncn1CCCn1ccnc1`, the EC50 was > 40 µM (inactive).
In the case of `O=C(Oc1ccc2c(c1)OCO2)C12CC3CC(CC(C3)C1)C2`, the EC50 is reported as > 40 µM (inactive).
With `ClC(Cl)(c1nnnn1-c1ccccc1)c1nnnn1-c1ccccc1` the EC50 was > 40 µM (inactive).
With `N#Cc1ccc(-c2ccc(OCC(=O)NCCc3ccccc3)cc2)cc1` the EC50 was > 40 µM (inactive).
`Cc1ccc(-c2ccc(/C=C3\C(=O)ON=C3c3ccccc3)o2)c([N+](=O)[O-])c1` was tested, and the EC50 was > 40 µM (inactive).
`NC(=S)N/N=C/c1coc2cc(Cl)ccc2c1=O` was tested, and the EC50 was > 40 µM (inactive).
With `O=C(Nc1cccc(Cl)c1)c1ccc2c(=O)n3c(nc2c1)CCCCC3` the EC50 was > 40 µM (inactive).
For `O=Cc1cc2ccccc2nc1SCc1ccc(Cl)cc1`, the EC50 was > 40 µM (inactive).
With `COc1ccc(-c2cc(C(F)(F)F)nc(S(C)(=O)=O)n2)cc1OC` the EC50 was > 40 µM (inactive).
For `N#Cc1cc(C(=O)c2cc(F)ccc2O)cn(-c2nccs2)c1=O`, the EC50 was > 40 µM (inactive).
For `CCCC[n+]1c(-c2ccc(Cl)cc2Cl)csc1Nc1ccccc1`, the EC50 was > 40 µM (inactive).
For `Cn1c(=O)c2c(nc(Br)n2Cc2ccc3ccccc3c2)n(C)c1=O`, the EC50 was > 40 µM (inactive).
With `CCOC(=O)C1CCN(C(c2cc3ccc(C)c(C)c3[nH]c2=O)c2nnnn2C2CCCCC2)CC1` (stereo unspecified) the EC50 was > 40 µM (inactive).
In the case of `O=C(COc1ccc([N+](=O)[O-])cc1)N(Cc1ccccc1)Cc1ccccc1`, the EC50 is reported as > 40 µM (inactive).
`c1cncc(-c2nn[nH]n2)c1` was tested, and the EC50 was > 40 µM (inactive).
In the case of `CN1CCN(C(=S)Nc2cc([N+](=O)[O-])ccc2Cl)CC1`, the EC50 is reported as > 40 µM (inactive).
With `CCCn1[nH]cc(SC)c(=O)c1=O` the EC50 was > 40 µM (inactive).
For `O=Cc1ccccc1OS(=O)(=O)c1ccccc1`, the EC50 was > 40 µM (inactive).
With `Cc1ccc(C)c(N2CCN(S(=O)(=O)c3c(C)noc3/C=C/N(C)C)CC2)c1` the EC50 was > 40 µM (inactive).
With `COCCCNc1c2c3c(cccc3[nH]c1=O)C(=O)c1ccccc1-2` the EC50 was > 40 µM (inactive).
In the case of `Cc1ccc(C(=O)NNC(=S)NC(=O)c2ccc(Cl)cc2)cc1`, the EC50 is reported as > 40 µM (inactive).
With `Cc1ccc(N(C(=O)CS(=O)CC(=O)Nc2ccc(F)cc2)C(C(=O)NC2CCCCC2)c2ccco2)cc1` (stereo unspecified) the EC50 was > 40 µM (inactive).
In the case of `CC(C)Cc1nn2c(=O)cc(O)nc2s1`, the EC50 is reported as > 40 µM (inactive).
With `CCOC(=O)/C(=C/c1ccc(OC(=O)c2ccccc2)cc1)C(C)=O` the EC50 was > 40 µM (inactive).
For `CCc1[nH]nc2c1C(c1ccc(Br)s1)C(C#N)=C(N)O2` (stereo unspecified), the EC50 was > 40 µM (inactive).
With `CCOC(=O)c1c(C)oc2c1c(C(c1cccnc1)N1CCCCC1)c(O)c1ccccc12` (stereo unspecified) the EC50 was > 40 µM (inactive).
`CCOC(=O)c1c(NC(=O)C2C3C=CC(C3)C2C(=O)O)sc2c1CCC(CC)C2` (stereo unspecified) was tested, and the EC50 was > 40 µM (inactive).
`O=c1c2ccccc2sn1-c1ccccc1` was tested, and the EC50 was > 40 µM (inactive).
With `COc1ccc(C(=O)Nc2ccc(OCc3ccccc3)cc2)cc1[N+](=O)[O-]` the EC50 was > 40 µM (inactive).
In the case of `COc1c(Br)cc(Br)cc1/C=N/n1c(C)nnc1C`, the EC50 is reported as > 40 µM (inactive).
`CCCCn1c(=O)c(C(=O)Nc2cnccn2)c(O)c2ccccc21` was tested, and the EC50 was > 40 µM (inactive).
With `Cc1ccnc(N=Cc2c(O)ccc3oc4c(c23)CCCC4)c1` the EC50 was > 40 µM (inactive).
For `CC(C)(C)C1CCc2[nH]nc(C(=O)O)c2C1` (stereo unspecified), the EC50 was > 40 µM (inactive).
